From patent publication US7638119B2, “Method of diminishing the symptoms of neurodegenerative disease” (priority 2004, dated 2009) come the findings set out here.

Like-named read-outs stand apart in the source and are kept apart here.

Series [1] has as its system Nrf2+/+ and −/− primary cortical neuronal cultures. Description: TUNEL staining of primary neuronal cultures treated with 3NP. Type of series: cell-based, mouse. The conditions noted are these: 2 mM 3NP, visual inspection. Here is the method:
(§1) For primary cortical neuronal cultures, Nrf2+/− mice were bred and cultures were prepared from individual E15/16 embryos as previously described (Lee, J. M., et al., supra, 2003). Treatments were applied between day 3 and 5 in vitro. Immunostaining for β-III-tubulin and GFAP confirmed no difference in the ratio of neurons to astrocytes between genotypes (data not shown). HPAP+ cultures were prepared similarly. HPAP activity and histochemistry in primary cultures was measured as previously described (Johnson, D. A., et al., supra, 2002).
(§2) LDH release into medium was measured using the CytoTox96 Non-Radioactive Cytotoxicity Assay kit (Promega) according to the manufacturers instructions. LDH activity was measured on both media and lysed cells. After normalizing to non-treated wells, the percentage of LDH in the media was calculated. Each measurement was made in at least triplicate on separate cultures from three individual pups. Terminal deoxynucleotidyltransferase-mediated dUTP nick end labeling (TUNEL; Roche Applied Science) staining was also performed according to the manufacturers instructions on cultures from at least two different pups per genotype.
(§3) In order to examine the differential sensitivity of Nrf2−/− neurons to complex II inhibition, Nrf2+/+ and −/− primary cortical neuronal cultures (3 DIV) were treated with 3NP for 48 and assessed for LDH release. […]

The test system of series [2] is antioxidant response element (ARE). The series can be described thus: hPAP reporter activation after 3NP in ARE-hPAP primary neuronal cultures. Type of series: cell-based, mouse. The settings on record: ARE-hPAP+ primary cortical neuronal cultures, neurotoxic doses, 48 hours.
Text: Nrf2−/− and ARE-hPAP transgenic reporter mice were bred separately. Nrf2−/− mice were created by targeted disruption of the Nrf2 gene (Chan, K., et al., Proc. Natl. Acad. Sci. USA 93:13943-13948, 1996). ARE-hPAP reporter mice were created by insertion of a 51 basepair segment of rat NAD(P)H Quinone Oxidoreductase-1 promoter containing the core ARE into a minimal promoter upstream of the heat stable human Placental Alkaline Phosphatase (hPAP) (Johnson, D. A., et al., J. Neurochem. 81:1233-1241, 2002).
as §1
This activation was localized to the surviving astrocytes (FIG. 2B) as visualized by vector red staining and GFAP co-labeling.

Series [3] relates to Nrf2−/−, +/− or +/+ mice. Description: Systemic 3NP administration: phenotypic scoring, death and weight loss. The format is in vivo, mouse. Here is the method:
(§4) Nrf2−/−, +/−, or +/+ mice received i.p. injections of 50 mg/kg 3NP or vehicle every 12 hours for a total of 7 injections. 25 mg/ml 3-NP in PBS was prepared fresh and adjusted to pH 7.4 with 10M NaOH. Individual doses were diluted so that injection volume remained constant at 200 μl. Six to eight hours after the last dose mice were sacrificed as below. One Nrf2 KO mouse died prior to the seventh dose and three others had severe symptoms that were classified as stage III according to Gabrielson, et al. (Gabrielson, K. L., et al., Am. J. Pathol. 159:1507-1520, 2001).
We posited that this increased sensitivity would also extend to an in vivo model. 18 week-old mice were dosed every 12 hours with 50 mg/kg 3NP. After seven doses, a clear differential sensitivity had emerged based on the subjective classification described by Gabrielson, et al. (Gabrielson, K. L., et al., supra, 2001). […] No Nrf2+/+ or Nrf2+/− mice rated above stage 1.
Table 1: Phenotypic scoring of mice after 3NP administration. Nrf2+/+, Nrf2+/− and Nrf2−/− mice were scored Stage 0, I, II or III based on the development of clinical symptoms.

Series [4] concerns Nrf2−/−, +/− or +/+ mice. The series can be described thus: Rotarod performance after 3NP. Type of series: in vivo, mouse. The settings on record: Nrf2−/− mice versus 3NP-injected Nrf2+/+ and heterozygous mice, four hours after last dose, 5 rpm. As for the experimental part: To assess sensorimotor deficits in 3NP-treated animals, mice were trained up to 5 times per day on the rotarod (Columbus Instruments) for three days prior to 3-NP administration (Fernagut, P. O., et al., Neuroscience 114:1005-1017, 2002). All mice were able to achieve 180 sec (5 rpm) on the first trial by day three. Rotarod function was measured prior to the first dose and following the last dose of 3-NP.
Four hours after the last dose, motor skills were assessed by rotarod performance. Up to three trials were given for each mouse and the longest time spent on the rotarod was used for analysis. All PBS-injected mice were able to maintain 5 rpm for 180 sec (the maximum time allowed).

Series [5] deals with Nrf2+/+ and −/− primary cortical neuronal cultures. Description: LDH release cytotoxicity in primary neuronal cultures treated with 3NP. The conditions noted are these: Nrf2−/− versus wild-type cultures, all doses, treated for 48. The format is cell-based, mouse. As for the experimental part: as §1, §2, §3
Background: LDH in the medium is a marker of cell lysis.

Series [6] deals with Nrf2−/−, +/− or +/+ mice. The series can be described thus: Striatal lesions after 3NP (Fluorojade-B, cresyl violet). Type of series: in vivo, mouse. As for the experimental part: as §4
(§5) Mice were euthanized with CO2 and perfused with 4% paraformaldehyde. Tissues were post-fixed overnight at 4° C. and cryoprotected in 30% sucrose/PBS. Using a cryostat (Leica), adjacent coronal 20 μm and 50 μm sections were taken for staining with Fluorojade-B and cresyl violet respectively through the entire striatum. […] Lesion size was quantified using the Cavieleri Estimator (Stereoinvestigator; Microbrightfield) on sections 200 μm apart. HPAP histochemistry was measured as previously described (Johnson, D. A., et al., supra, 2002).
After mice were sacrificed, brains were stained with cresyl violet or Fluorojade-B (FIG. 3C). Lesions in Nrf2−/− mice were observable using both staining methods; however, they were more apparent in the fluorojade B-stained sections; these sections were used for lesion volume quantification (FIG. 3D).

Series [7] deals with Nrf2−/−, +/− and +/+ mice. The conditions noted are these: for Average lesion size: 0.5M malonate 1 μl intrastriatal, cresyl violet. As for the experimental part: (§6) Mice were anesthetized with isoflurane. […] One minute after insertion of the Hamilton syringe, the solution was administered over 2 minutes and the needle was withdrawn 2 mm per minute. ARE-hPAP+ mice were injected similarly with 0.25M (1 μl), due to differences in background strain sensitivity.
as §5
Ten days post-injection mice were sacrified and lesion size was measured by cresyl violet staining (FIG. 4A).

For series [8], the system named is antioxidant response element (ARE). Description: hPAP histochemistry after intrastriatal malonate in ARE-hPAP reporter mice. The format is in vivo, mouse. The settings on record: 48 hours after intrastriatal malonate. Here is the method: as §6, §5
Malonate was injected intrastriatally into ARE-hPAP reporter mice. After 48 hours the mice were euthanized and hPAP histochemistry was performed. […] ARE-activated astrocytes, as visualized by GFAP immunohistochemistry, occur in a similar pattern (FIG. 5C).

Where [9] appears, read: Nrf2−/− mice, 50 mg/kg i.p. every 12 hours, 7 injections.

For `O=C(O)CC[N+](=O)[O-]` [3NP, 3-nitropropionic acid], the TUNEL-positive neurons result in series [1] (Nrf2+/+ neurons) was “significantly lower percentage”; in series [1] (Nrf2−/− neurons), “Nearly all”. Moreover, in series [2], the hPAP expression result is on record as “significantly increased”. Also, the “Mice scored Stage 0” value was found to be 5 in the series on Nrf2−/−, +/− or +/+ mice [3] (Nrf2+/+ mice, 50 mg/kg i.p. every 12 hours, 7 injections); 4 with Nrf2−/−, +/− or +/+ mice [3] (Nrf2+/− mice, 50 mg/kg i.p. every 12 hours, 7 injections); 1 in the series with Nrf2−/−, +/− or +/+ mice [3] (setting [9]). For the same compound, in the series with Nrf2−/−, +/− or +/+ mice [3] (setting [9]), the “Mice scored Stage I” value came to 3. In the series on Nrf2−/−, +/− or +/+ mice [3] (setting [9]), the “Mice scored Stage II” value is reported as 1. Besides, the “Weight loss, percent of starting weight” value with Nrf2−/−, +/− or +/+ mice [3] (Nrf2−/− mice, after seven doses of 50 mg/kg) came to 12±1.9%. Besides, in the series with Nrf2−/−, +/− or +/+ mice [3] (Nrf2−/− mice, prior to the seventh dose of 50 mg/kg), the Death result is “one mouse died”. Further, in the series on Nrf2−/−, +/− or +/+ mice [4], the Rotarod function entry is listed as “significantly reduced function”. The LDH release entry in series [5] was “greater in the Nrf2−/− cultures than in wild-type cultures”. Further, the “Mice with measurable lesions” value with Nrf2−/−, +/− or +/+ mice [6] (Nrf2+/+ mice) is “No lesions”; in the series with Nrf2−/−, +/− or +/+ mice [6] (Nrf2+/− mice), “only one”; in the series with Nrf2−/−, +/− or +/+ mice [6] (Nrf2−/− mice), “Five of the eight”.
Consider `O=C(O)CC(=O)O` [malonate], for which the Average lesion size worked out at 0.03±0.07 mm^3 in series [7] (Nrf2+/+ mice, ten days post-injection) and 0.16±0.07 mm^3 in series [7] (Nrf2+/− mice, ten days post-injection). For the same compound, the results for the “Increase of average lesion size” value in series [7] (Nrf2−/− versus Nrf2+/+ mice) and in series [7] (Nrf2−/− versus Nrf2+/− mice) were “over 21 fold” and 4 fold, respectively. Moreover, the Overt behavioral phenotype entry in series [7] (all genotypes, ten days post-injection) was “None of the mice exhibited an overt behavioral phenotype”. Also, the hPAP activity result in series [8] is “present near the edges of the lesion”.
